“And” between values parts separate entries of the source, which are not always exact repeats. Equal values may be shown once. Inconclusive results and toxic doses are left out.
Tested on: BDF1 mice, P388 leukemia ip, median survival T/C
Assay: NCI In Vivo Anticancer Drug Screen. Data for tumor model P388 Leukemia (intraperitoneal) in B6D2F1 (BDF1) mice
Settings: endpoint: median survival time, higher = longer survival
Summary of the method: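 Each value expresses how treatment altered survival: treated-mouse outcome over vehicle-mouse outcome, both groups bearing the transplanted tumour.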

[1] = dose: 100.0 mg/kg/injection, schedule: Q04DX003 (ip), vehicle: Klucel (hydroxypropylcellulose) (HPC)
[2] = dose: 25.0 mg/kg/injection, schedule: Q01DX009 (ip), vehicle: saline with Tween-80
[3] = dose: 50.0 mg/kg/injection, schedule: Q01DX009 (ip), vehicle: saline with Tween-80
[4] = dose: 100.0 mg/kg/injection, schedule: Q01DX009 (ip), vehicle: saline with Tween-80
[5] = dose: 200.0 mg/kg/injection, schedule: Q04DX003 (ip), vehicle: Klucel (hydroxypropylcellulose) (HPC)
[6] = dose: 400.0 mg/kg/injection, schedule: Q04DX003 (ip), vehicle: Klucel (hydroxypropylcellulose) (HPC)
[7] = dose: 12.5 mg/kg/injection, schedule: Q01DX009 (ip), vehicle: saline with Tween-80
[8] = dose: 200.0 mg/kg/injection, schedule: Q01DX009 (ip), vehicle: saline with Tween-80
[9] = dose: 100.0 mg/kg/injection, schedule: Q01DX009 (ip), vehicle: Klucel (hydroxypropylcellulose) (HPC)

`C=CCOCCC(=O)OCC=C` was tested, and the T/C (dose: 12.0 mg/kg/injection, schedule: Q01DX001 (ip), vehicle: Klucel (hydroxypropylcellulose) (HPC)) was 104 % of control, the T/C (dose: 25.0 mg/kg/injection, schedule: Q01DX001 (ip), vehicle: Klucel (hydroxypropylcellulose) (HPC)) was 100 % of control and the T/C (dose: 25.0 mg/kg/injection, schedule: Q04DX003 (ip), vehicle: Klucel (hydroxypropylcellulose) (HPC)) was 100 % of control. The T/C (dose: 50.0 mg/kg/injection, schedule: Q01DX001 (ip), vehicle: Klucel (hydroxypropylcellulose) (HPC)) was 86 % of control, the T/C (dose: 50.0 mg/kg/injection, schedule: Q04DX003 (ip), vehicle: Klucel (hydroxypropylcellulose) (HPC)) was 104 % of control and the T/C [1] was 86 % of control and 100 % of control.

For `c1ccc(N=NC2=NN(c3ccccc3)CCS2)cc1`, the T/C [2] was 116 % of control, the T/C [3] was 105 % of control and the T/C [4] was 122 % of control.

For `CCCCn1c2nc(=O)[nH]c(=O)c-2[n+]([O-])c2ccccc21`, the T/C (dose: 100.0 mg/kg/injection, schedule: Q01DX001 (ip), vehicle: saline with Tween-80) was 108 % of control.

In the case of `C1=NOC2c3ccc4ccccc4c3CCC12` (stereo unspecified), the T/C [5] is reported as 87 % of control and the T/C [6] is reported as 95 % of control.

With `C=CC(=O)NCCCCC(N)C(=O)O` (stereo unspecified) the T/C [7] was 108 % of control, the T/C [2] was 106 % of control and the T/C [3] was 113 % of control.

For `Cc1ccc(NC(=O)/C=C\C(=O)O)cc1`, the T/C [1] was 108 % of control, the T/C [5] was 100 % of control and the T/C [6] was 100 % of control.

With `CN(N=O)C(=O)N[C@@H](C=O)[C@@H](O)[C@H](O)[C@H](O)CO` the T/C (dose: 17.0 mg/kg/injection, schedule: Q01DX009 (ip), vehicle: water) was 118 % of control, the T/C (dose: 39.0 mg/kg/injection, schedule: Q01DX009 (ip), vehicle: water) was 161 % of control and the T/C (dose: 40.0 mg/kg/injection, schedule: Q01DX010 (ip), vehicle: other) was 154 % of control. The T/C (dose: 50.0 mg/kg/injection, schedule: Q01DX009 (ip), vehicle: other) was 171 % of control, the T/C (dose: 58.0 mg/kg/injection, schedule: Q01DX009 (ip), vehicle: water) was 157 % of control and 181 % of control and the T/C (dose: 80.0 mg/kg/injection, schedule: Q01DX010 (ip), vehicle: other) was 118 % of control. For the same molecule, the T/C (dose: 87.0 mg/kg/injection, schedule: Q01DX009 (ip), vehicle: water) was 154 % of control and 170 % of control, the T/C (dose: 100.0 mg/kg/injection, schedule: Q04DX002 (ip), vehicle: saline) was 109 % of control and the T/C (dose: 130.0 mg/kg/injection, schedule: Q01DX009 (ip), vehicle: water) was 89 % of control. The T/C (dose: 200.0 mg/kg/injection, schedule: Q04DX002 (ip), vehicle: saline) was 100 % of control and the T/C (dose: 400.0 mg/kg/injection, schedule: Q04DX002 (ip), vehicle: saline) was 109 % of control.

In the case of `COc1cccc2c(Cl)c(CCl)c(C)nc12`, the T/C (dose: 6.25 mg/kg/injection, schedule: Q01DX009 (ip), vehicle: saline with Tween-80) is reported as 94 % of control, the T/C [7] is reported as 110 % of control and the T/C [2] is reported as 103 % of control. The T/C [3] was 103 % of control and the T/C [4] was 103 % of control.

With `CC1=CC(C)(C)NC(=S)N1c1ccccc1` the T/C (dose: 75.0 mg/kg/injection, schedule: Q04DX003 (ip), vehicle: Klucel (hydroxypropylcellulose) (HPC)) was 100 % of control, the T/C (dose: 100.0 mg/kg/injection, schedule: Q01DX001 (ip), vehicle: Klucel (hydroxypropylcellulose) (HPC)) was 95 % of control and the T/C (dose: 150.0 mg/kg/injection, schedule: Q04DX003 (ip), vehicle: Klucel (hydroxypropylcellulose) (HPC)) was 100 % of control. For the same molecule, the T/C (dose: 200.0 mg/kg/injection, schedule: Q01DX001 (ip), vehicle: Klucel (hydroxypropylcellulose) (HPC)) was 104 % of control, the T/C (dose: 300.0 mg/kg/injection, schedule: Q04DX003 (ip), vehicle: Klucel (hydroxypropylcellulose) (HPC)) was 100 % of control and the T/C (dose: 400.0 mg/kg/injection, schedule: Q01DX001 (ip), vehicle: Klucel (hydroxypropylcellulose) (HPC)) was 109 % of control.

`C/C(=C/B1OCCO1)CCl` was tested, and the T/C (dose: 100.0 mg/kg/injection, schedule: Q04DX003 (ip), vehicle: saline sonified) was 105 % of control, the T/C (dose: 200.0 mg/kg/injection, schedule: Q04DX003 (ip), vehicle: saline sonified) was 100 % of control and the T/C (dose: 400.0 mg/kg/injection, schedule: Q04DX003 (ip), vehicle: saline sonified) was 110 % of control.

`O=C1CC(SC(=S)C2CCCC2=O)C(=O)O1` (stereo unspecified) was tested, and the T/C [3] was 122 % of control.

With `NC(=O)c1ncc(-c2ccc(Cl)cc2)[nH]c1=O` the T/C [4] was 95 % of control, the T/C [8] was 90 % of control and the T/C (dose: 400.0 mg/kg/injection, schedule: Q01DX009 (ip), vehicle: saline with Tween-80) was 109 % of control.

For `Cc1cc(Cl)ccc1NC(=O)c1ccccc1C(=O)O`, the T/C [1] was 91 % of control, the T/C [5] was 91 % of control and the T/C [6] was 87 % of control.

With `NNC(=O)CCCCCCCCCCCCCCCO` the T/C [3] was 94 % of control.

`C[N-]c1nnnn1Cc1ccccc1.[Au+].c1ccc([PH+](c2ccccc2)c2ccccc2)cc1` was tested, and the T/C (dose: 25.0 mg/kg/injection, schedule: Q04DX002 (ip), vehicle: saline with Tween-80) was 109 % of control, the T/C (dose: 50.0 mg/kg/injection, schedule: Q04DX002 (ip), vehicle: saline with Tween-80) was 102 % of control and the T/C (dose: 100.0 mg/kg/injection, schedule: Q04DX002 (ip), vehicle: saline with Tween-80) was 116 % of control.

In the case of `COc1cc(C2c3cc4c(cc3C(O)C3COC(=O)C23)OCO4)cc(O)c1OC` (stereo unspecified), the T/C (dose: 2.0 mg/kg/injection, schedule: Q01DX009 (ip), vehicle: saline) is reported as 120 % of control and the T/C (dose: 4.0 mg/kg/injection, schedule: Q01DX009 (ip), vehicle: saline) is reported as 105 % of control.

With `COc1c(C)cc(Br)c2c1C(CCN(C)S(=O)(=O)Cc1ccccc1)CCC2` (stereo unspecified) the T/C [9] was 100 % of control, the T/C (dose: 200.0 mg/kg/injection, schedule: Q01DX009 (ip), vehicle: Klucel (hydroxypropylcellulose) (HPC)) was 110 % of control and the T/C (dose: 400.0 mg/kg/injection, schedule: Q01DX009 (ip), vehicle: Klucel (hydroxypropylcellulose) (HPC)) was 110 % of control.

For `Cc1ccc(C(=O)N(O)c2ccccc2)cc1`, the T/C [3] was 98 % of control, the T/C [4] was 95 % of control and the T/C [8] was 104 % of control.

For `CC(=N/NC(=S)NCCN1CCCCC1)/C(C)=N\NC(=S)NCCN1CCCCC1`, the T/C (dose: 0.78 mg/kg/injection, schedule: Q01DX009 (ip), vehicle: saline) was 90 % of control, the T/C (dose: 1.56 mg/kg/injection, schedule: Q01DX009 (ip), vehicle: saline) was 98 % of control and the T/C (dose: 3.13 mg/kg/injection, schedule: Q01DX009 (ip), vehicle: saline) was 98 % of control and 121 % of control. The T/C (dose: 6.25 mg/kg/injection, schedule: Q01DX009 (ip), vehicle: saline) was 105 % of control and 109 % of control and the T/C (dose: 12.5 mg/kg/injection, schedule: Q01DX009 (ip), vehicle: saline) was 103 % of control.

With `CCCCCCCCCCCCCCCCN(C)CCO` the T/C (dose: 50.0 mg/kg/injection, schedule: Q01DX009 (ip), vehicle: saline + alcohol) was 97 % of control.

In the case of `Nc1ccc(S(=O)(=O)c2cc(O)c3ccccc3c2O)cc1`, the T/C (dose: 6.25 mg/kg/injection, schedule: Q01DX009 (ip), vehicle: Klucel (hydroxypropylcellulose) (HPC)) is reported as 118 % of control, the T/C (dose: 12.5 mg/kg/injection, schedule: Q01DX009 (ip), vehicle: Klucel (hydroxypropylcellulose) (HPC)) is reported as 104 % of control and the T/C (dose: 25.0 mg/kg/injection, schedule: Q01DX009 (ip), vehicle: Klucel (hydroxypropylcellulose) (HPC)) is reported as 122 % of control.

In the case of `CC(=O)[O][Pb]([CH2]CC(C)C)([CH2]CC(C)C)[CH2]CC(C)C`, the T/C (dose: 0.19 mg/kg/injection, schedule: Q01DX009 (ip), vehicle: saline with Tween-80) is reported as 123 % of control, the T/C (dose: 0.38 mg/kg/injection, schedule: Q01DX009 (ip), vehicle: Klucel (hydroxypropylcellulose) (HPC)) is reported as 94 % of control and the T/C (dose: 0.38 mg/kg/injection, schedule: Q01DX009 (ip), vehicle: saline with Tween-80) is reported as 111 % of control. For the same molecule, the T/C (dose: 0.75 mg/kg/injection, schedule: Q01DX009 (ip), vehicle: Klucel (hydroxypropylcellulose) (HPC)) was 105 % of control and the T/C (dose: 0.75 mg/kg/injection, schedule: Q01DX009 (ip), vehicle: saline with Tween-80) was 106 % of control.

`COc1ccc(CCC(C(=O)O)c2ccc(OC)c(OC)c2)cc1OC` (stereo unspecified) was tested, and the T/C (dose: 45.0 mg/kg/injection, schedule: Q01DX009 (ip), vehicle: Klucel (hydroxypropylcellulose) (HPC)) was 95 % of control, the T/C (dose: 65.0 mg/kg/injection, schedule: Q01DX009 (ip), vehicle: Klucel (hydroxypropylcellulose) (HPC)) was 90 % of control and the T/C [9] was 95 % of control. The T/C (dose: 150.0 mg/kg/injection, schedule: Q01DX009 (ip), vehicle: Klucel (hydroxypropylcellulose) (HPC)) was 90 % of control.

In the case of `COc1ccc(C(OC)C2CCCCC2N2CCCCC2)cc1` (stereo unspecified), the T/C (dose: 0.5 mg/kg/injection, schedule: Q01DX009 (ip), vehicle: Klucel (hydroxypropylcellulose) (HPC)) is reported as 90 % of control, the T/C (dose: 1.0 mg/kg/injection, schedule: Q01DX009 (ip), vehicle: Klucel (hydroxypropylcellulose) (HPC)) is reported as 101 % of control and the T/C (dose: 2.0 mg/kg/injection, schedule: Q01DX009 (ip), vehicle: Klucel (hydroxypropylcellulose) (HPC)) is reported as 98 % of control.

With `CCOC(=O)c1nnc(C)[nH]c1=O` the T/C [3] was 103 % of control, the T/C [4] was 103 % of control and the T/C [8] was 98 % of control.
